Values quoted from earlier work, collected in patent US20070232537A1, “INTRANASAL PYY FORMULATIONS WITH IMPROVED TRANSMUCOSAL PHARMACOKINETICS” (Nastech Pharmaceutical Company Inc., priority 2005, published 2007).
Each block holds one compound with its values, some of them ahead of it.

Assays:
[1] = aqueous solution at physiologic pH
[2] = anesthetized rats; increased from 7.5

Compound: 2-alkyl-4-hydroxyquinolines [pyo compound]
concentration producing ciliostasis / inhibiting ciliary motility (ciliary motility): 50 µg/mL

Compound: NCCN(CCN)/[N+]([O-])=N/O [diethylenetriamine/NO]
NO release rate (time) [1]: approximately 20 hours

Compound: CCN(CC)/[N+]([O-])=N/O.CCNCC [diethylamine/NO]
NO release rate (time) [1]: < 3 min

times more effective in enzyme inhibition than bestatin (aminopeptidases): more than 100 times
times more effective in enzyme inhibition than puromycin (aminopeptidases): more than 1000 times
Compound: CC(C)CC(N)B(O)O (stereo not drawn) [boro-leucine]

nasal bioavailability of human growth hormone [2]: 12.2%
Compound: CC(=O)N[C@@H](CS)C(=O)O [N-acetyl-L-cysteine]
